Measured values from ChEMBL document CHEMBL1201862, “PubChem BioAssay data set” (2004).
Calls of active or inactive are those of the source.

Assays:
[1] = target: Voltage-dependent T-type calcium channel subunit alpha-1H (Homo sapiens, UniProt O95180); assay type: functional;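 note: channel activity triggered by adding a high calcium stimulation buffer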
[2] = microbe, parasite or virus in culture; assay type: functional; conditions: Mycobacterium tuberculosis
[3] = cytotoxicity toward NIH3T3 fibroblasts, dose response, counter-screen, cell-based, ATP luminescence, mouse fibroblasts (AID 2010); assay type: functional;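 note: cells exposed to compound for about 90 hours before reading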
[4] = inhibitors of intracellular T. cruzi replication, confirmation, NIH3T3 host cells, beta-gal luminescence (AID 2044); assay type: functional, cell-based;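 note: intracellular parasites grown in NIH/3T3 mouse fibroblasts as host cells; luminescent beta-galactosidase reporter signal from transgenic T. cruzi replicating inside host cells; inhibitors lower the luminescence signal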
[5] = Shn3 3'UTR reporter inhibitors, dose response, cell-based, Clone20 osteoblasts, firefly luciferase, cherry-picked (AID 624132); assay type: functional;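 note: firefly luciferase luminescence from reporter carrying the Shn3 3'UTR in osteoblasts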
[6] = HepG2 cell cytotoxicity, dose response, cytotoxicity control for Shn3 inhibitor project, CellTiter-Glo, cherry-picked (AID 624134); assay type: functional, cell-based
[7] = control 3'UTR Renilla luciferase suppression, dose response, counter-screen for Shn3 inhibitor project, cell-based, Clone20-Shn3RL, cherry-picked (AID 624133); assay type: functional
[8] = growth suppression of beta-catenin-knockout colon cells, dose response, cell-based, HCT116, human colon tumor (AID 1045); assay type: functional;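 note: HCT116 colon tumor cells with beta catenin knocked out; cells exposed to compound for 60 hours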
[9] = growth suppression of PTEN-null colon cells, dose response, cell-based, HCT116 PTEN knockout (AID 1047); assay type: functional;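 note: HCT116 colon tumor cells with PTEN knocked out; cells exposed to compound for 60 hours before readout; potency for loss of cell viability measured by luminescence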
[10] = target: T1, DNA repair protein RAD52 homolog (Homo sapiens, UniProt P43351); assay type: functional, biochemical
T1 sequence (P43351 whole entry): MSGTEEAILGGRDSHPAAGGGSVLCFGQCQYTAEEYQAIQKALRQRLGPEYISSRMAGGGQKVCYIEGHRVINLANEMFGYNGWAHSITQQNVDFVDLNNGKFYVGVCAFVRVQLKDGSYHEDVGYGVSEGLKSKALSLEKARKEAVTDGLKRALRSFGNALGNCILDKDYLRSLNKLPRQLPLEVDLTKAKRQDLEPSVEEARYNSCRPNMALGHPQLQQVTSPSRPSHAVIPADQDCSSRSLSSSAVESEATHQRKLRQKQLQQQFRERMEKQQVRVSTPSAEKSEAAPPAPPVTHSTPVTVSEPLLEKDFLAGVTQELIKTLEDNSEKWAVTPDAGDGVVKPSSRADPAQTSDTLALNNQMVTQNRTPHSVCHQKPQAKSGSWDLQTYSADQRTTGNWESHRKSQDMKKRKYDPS

[11] = target: T2, Polyadenylate-binding protein 1 (Homo sapiens, UniProt P11940); test: PABP1 MLLE–PAM2 binding inhibitor potency, dose response, biochemical, fluorescence polarization, FITC-PAM2 peptide (AID 602259); assay type: functional; conditions: read-out: IC50_Mean
T2 sequence (P11940 whole entry): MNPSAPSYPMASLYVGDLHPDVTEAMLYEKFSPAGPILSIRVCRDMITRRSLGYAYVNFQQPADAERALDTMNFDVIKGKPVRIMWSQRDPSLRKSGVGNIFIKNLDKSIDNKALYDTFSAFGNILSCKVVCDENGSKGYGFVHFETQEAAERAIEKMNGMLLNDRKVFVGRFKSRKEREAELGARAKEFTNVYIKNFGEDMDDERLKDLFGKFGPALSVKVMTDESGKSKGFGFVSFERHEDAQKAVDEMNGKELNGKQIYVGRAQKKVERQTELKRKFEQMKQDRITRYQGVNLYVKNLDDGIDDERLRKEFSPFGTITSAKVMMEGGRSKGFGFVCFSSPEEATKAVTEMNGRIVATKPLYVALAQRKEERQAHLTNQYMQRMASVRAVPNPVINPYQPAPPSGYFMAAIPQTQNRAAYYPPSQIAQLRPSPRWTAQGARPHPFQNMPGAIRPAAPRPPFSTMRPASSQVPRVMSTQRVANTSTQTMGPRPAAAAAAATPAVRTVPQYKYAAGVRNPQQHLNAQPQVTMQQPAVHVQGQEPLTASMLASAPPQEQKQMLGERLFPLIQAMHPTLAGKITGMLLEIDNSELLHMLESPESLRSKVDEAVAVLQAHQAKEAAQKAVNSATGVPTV

[12] = target: T2, Polyadenylate-binding protein 1; test: PABP1 MLLE–PAM2 interaction inhibitors, dose response, miRNA deadenylation inhibitor project, biochemical, fluorescence polarization, Cy5-PAM2 peptide, secondary (AID 602260); assay type: functional; conditions: read-out: IC50_Mean
[13] = target: FAD-linked sulfhydryl oxidase ALR (Homo sapiens, UniProt P55789); test: inhibitors of human ALR sulfhydryl oxidase, dose response, biochemical, H2O2 detection, luminescence, cherry-pick (AID 493248)
Sequence of FAD-linked sulfhydryl oxidase ALR (P55789 whole entry): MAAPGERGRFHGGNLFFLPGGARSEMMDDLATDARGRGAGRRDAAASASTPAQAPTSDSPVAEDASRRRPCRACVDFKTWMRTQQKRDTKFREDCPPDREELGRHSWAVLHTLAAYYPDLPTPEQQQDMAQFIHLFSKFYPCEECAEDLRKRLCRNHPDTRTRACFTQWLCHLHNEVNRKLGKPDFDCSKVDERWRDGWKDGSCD

[14] = target: Large T antigen (Simian virus 40, UniProt P03070); assay type: functional, Betapolyomavirus macacae;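 note: Confirmatory-stage PubChem screen for compounds that inhibit SV40 T antigen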
Sequence of Large T antigen (P03070 whole entry): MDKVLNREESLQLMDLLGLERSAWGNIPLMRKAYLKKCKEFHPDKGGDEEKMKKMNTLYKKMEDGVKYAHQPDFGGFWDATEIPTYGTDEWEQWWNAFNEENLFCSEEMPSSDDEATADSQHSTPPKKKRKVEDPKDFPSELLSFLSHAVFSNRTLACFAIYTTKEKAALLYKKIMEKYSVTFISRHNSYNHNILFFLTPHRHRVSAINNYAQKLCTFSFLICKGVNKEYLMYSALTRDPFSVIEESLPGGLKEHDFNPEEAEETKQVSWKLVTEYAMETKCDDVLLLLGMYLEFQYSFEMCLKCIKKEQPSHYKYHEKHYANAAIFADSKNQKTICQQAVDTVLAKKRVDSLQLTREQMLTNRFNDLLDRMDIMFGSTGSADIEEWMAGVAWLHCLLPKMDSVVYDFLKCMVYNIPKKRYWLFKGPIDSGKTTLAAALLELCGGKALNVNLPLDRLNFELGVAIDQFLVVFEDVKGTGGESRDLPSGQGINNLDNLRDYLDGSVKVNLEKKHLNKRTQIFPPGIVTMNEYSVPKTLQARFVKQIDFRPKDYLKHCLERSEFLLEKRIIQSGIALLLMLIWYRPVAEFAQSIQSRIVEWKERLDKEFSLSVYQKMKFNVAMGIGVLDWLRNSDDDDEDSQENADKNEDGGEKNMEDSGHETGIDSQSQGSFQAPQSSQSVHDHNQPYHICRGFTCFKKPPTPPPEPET

[15] = Luminescence Cell-Based Dose Response HTS to Identify Inhibitors of 5'UTR Stem-Loop Driven Prion Protein mRNA Translation in H4 Neuroglioblastoma Cells. [Related pubchem assays: 1827 (Project Summary), 1813 (Primary HTS)]; assay type: functional
[16] = NIH-3T3 fibroblast cytotoxicity, dose response, cytotoxicity control, cell-based, fluorescence, Alamar Blue, secondary assay (AID 2327); assay type: functional;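 note: NIH-3T3 mouse fibroblasts cultured with fluconazole at 8 µg/mL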
[17] = C. albicans growth with fluconazole, confirmation, fluorescence, retest (AID 2467); assay type: functional, cell-based
[18] = inhibitors of firefly luciferase expression or activity, dose response, H4 neuroglioma cells, luminescence (AID 1990); assay type: functional, cell-based
[19] = inhibitors of SNCA 5'UTR-driven reporter translation, confirmation, H4 neuroglioma cells, luminescence (AID 1988); assay type: functional, cell-based
[20] = THP-1 cell cytotoxicity, dose response, cytotoxicity control for Vif-APOBEC3G degradation inhibitor project, THP-1 cells (AID 1117359); assay type: functional; conditions: Human immunodeficiency virus 1, THP-1
[21] = target: Cytochrome P450 3A4 (Homo sapiens, UniProt P08684); conditions: Potency;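 note: confirmatory qHTS run detecting inhibitors and substrates of CYP3A4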
Sequence of Cytochrome P450 3A4 (P08684 whole entry): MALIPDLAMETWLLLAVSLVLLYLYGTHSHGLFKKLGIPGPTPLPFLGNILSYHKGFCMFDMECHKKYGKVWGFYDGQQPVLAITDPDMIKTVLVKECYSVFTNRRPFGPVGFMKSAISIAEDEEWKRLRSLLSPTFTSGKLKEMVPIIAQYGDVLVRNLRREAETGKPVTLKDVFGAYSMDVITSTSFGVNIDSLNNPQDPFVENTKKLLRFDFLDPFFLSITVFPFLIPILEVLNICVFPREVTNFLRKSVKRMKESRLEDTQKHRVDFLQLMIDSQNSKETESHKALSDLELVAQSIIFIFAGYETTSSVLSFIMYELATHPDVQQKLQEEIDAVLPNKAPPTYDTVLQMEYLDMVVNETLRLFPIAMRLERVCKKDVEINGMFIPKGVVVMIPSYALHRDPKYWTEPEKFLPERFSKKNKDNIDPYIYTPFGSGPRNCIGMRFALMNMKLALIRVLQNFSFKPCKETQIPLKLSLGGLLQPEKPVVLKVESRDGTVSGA

[22] = Luminescence Cell-Based Dose Retest to Confirm Inhibitors of Cancer Stem Cells. [Related pubchem assays (depositor defined):AID2717, AID2721]; assay type: functional; conditions: Homo sapiens
[23] = system: Streptococcus sp. 'group A'; test: growth inhibition of control SK(-) GAS strain, dose response, counter-screen for streptokinase expression inhibitor project, luminescence, kanamycin, BacTiterGlo, confirmation (AID 1900); assay type: functional, organism-based
[24] = system: Streptococcus; test: Group A Streptococcus viability loss, dose response, counter-screen for streptokinase expression inhibitor project, luminescence, BacTiterGlo (AID 1915); assay type: functional, organism-based;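 note: potency for reduction of bacterial viability or growth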
[25] = target: T3, Streptokinase A (Streptococcus pyogenes serotype M1, UniProt P10520); test: S. pyogenes streptokinase expression inhibitors, potency, dose response, plasminogen activation absorbance, OD405 (AID 1914); assay type: functional, Streptococcus pyogenes M1 GAS;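 note: secreted streptokinase activity via plasminogen activation per viability signal from cell pellet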
T3 sequence (P10520 whole entry): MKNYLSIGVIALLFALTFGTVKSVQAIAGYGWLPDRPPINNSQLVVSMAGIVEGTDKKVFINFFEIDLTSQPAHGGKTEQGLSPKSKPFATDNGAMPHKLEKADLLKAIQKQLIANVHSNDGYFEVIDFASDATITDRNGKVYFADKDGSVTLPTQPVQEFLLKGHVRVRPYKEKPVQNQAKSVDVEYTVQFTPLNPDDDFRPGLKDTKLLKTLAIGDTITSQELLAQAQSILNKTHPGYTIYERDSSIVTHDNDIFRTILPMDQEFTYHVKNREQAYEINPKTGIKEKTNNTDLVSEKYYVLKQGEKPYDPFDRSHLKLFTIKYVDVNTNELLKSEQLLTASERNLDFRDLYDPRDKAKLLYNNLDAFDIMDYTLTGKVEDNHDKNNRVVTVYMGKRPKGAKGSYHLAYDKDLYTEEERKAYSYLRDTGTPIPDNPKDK

[26] = intracellular Trypanosoma cruzi inhibitors in host cells – cell-based, plate reader, cherry-pick samples, set 3, dose response (AID 651818); assay type: functional;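 note: compounds incubated with infected cells for about four days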
[27] = ZM109 Env clade C HIV-1 fusion inhibitors, dose response, HeLa effector, CEM target cells, luciferase, cherry-pick (AID 652058); assay type: functional, cell-based
[28] = inhibitors of HIV Env-driven cell fusion, dose response, cherry-pick (AID 652057); assay type: functional, cell-based
[29] = inhibitors of clade B AD8 Env fusion, dose response, cell-based, cherry-pick (AID 652062); assay type: functional;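 note: luciferase signal from cell-cell fusion driven by HIV-1 clade B AD8 Env; potency is for inhibitors of fusion seen as a drop in luminescence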

Sequence of Voltage-dependent T-type calcium channel subunit alpha-1H (O95180 whole entry): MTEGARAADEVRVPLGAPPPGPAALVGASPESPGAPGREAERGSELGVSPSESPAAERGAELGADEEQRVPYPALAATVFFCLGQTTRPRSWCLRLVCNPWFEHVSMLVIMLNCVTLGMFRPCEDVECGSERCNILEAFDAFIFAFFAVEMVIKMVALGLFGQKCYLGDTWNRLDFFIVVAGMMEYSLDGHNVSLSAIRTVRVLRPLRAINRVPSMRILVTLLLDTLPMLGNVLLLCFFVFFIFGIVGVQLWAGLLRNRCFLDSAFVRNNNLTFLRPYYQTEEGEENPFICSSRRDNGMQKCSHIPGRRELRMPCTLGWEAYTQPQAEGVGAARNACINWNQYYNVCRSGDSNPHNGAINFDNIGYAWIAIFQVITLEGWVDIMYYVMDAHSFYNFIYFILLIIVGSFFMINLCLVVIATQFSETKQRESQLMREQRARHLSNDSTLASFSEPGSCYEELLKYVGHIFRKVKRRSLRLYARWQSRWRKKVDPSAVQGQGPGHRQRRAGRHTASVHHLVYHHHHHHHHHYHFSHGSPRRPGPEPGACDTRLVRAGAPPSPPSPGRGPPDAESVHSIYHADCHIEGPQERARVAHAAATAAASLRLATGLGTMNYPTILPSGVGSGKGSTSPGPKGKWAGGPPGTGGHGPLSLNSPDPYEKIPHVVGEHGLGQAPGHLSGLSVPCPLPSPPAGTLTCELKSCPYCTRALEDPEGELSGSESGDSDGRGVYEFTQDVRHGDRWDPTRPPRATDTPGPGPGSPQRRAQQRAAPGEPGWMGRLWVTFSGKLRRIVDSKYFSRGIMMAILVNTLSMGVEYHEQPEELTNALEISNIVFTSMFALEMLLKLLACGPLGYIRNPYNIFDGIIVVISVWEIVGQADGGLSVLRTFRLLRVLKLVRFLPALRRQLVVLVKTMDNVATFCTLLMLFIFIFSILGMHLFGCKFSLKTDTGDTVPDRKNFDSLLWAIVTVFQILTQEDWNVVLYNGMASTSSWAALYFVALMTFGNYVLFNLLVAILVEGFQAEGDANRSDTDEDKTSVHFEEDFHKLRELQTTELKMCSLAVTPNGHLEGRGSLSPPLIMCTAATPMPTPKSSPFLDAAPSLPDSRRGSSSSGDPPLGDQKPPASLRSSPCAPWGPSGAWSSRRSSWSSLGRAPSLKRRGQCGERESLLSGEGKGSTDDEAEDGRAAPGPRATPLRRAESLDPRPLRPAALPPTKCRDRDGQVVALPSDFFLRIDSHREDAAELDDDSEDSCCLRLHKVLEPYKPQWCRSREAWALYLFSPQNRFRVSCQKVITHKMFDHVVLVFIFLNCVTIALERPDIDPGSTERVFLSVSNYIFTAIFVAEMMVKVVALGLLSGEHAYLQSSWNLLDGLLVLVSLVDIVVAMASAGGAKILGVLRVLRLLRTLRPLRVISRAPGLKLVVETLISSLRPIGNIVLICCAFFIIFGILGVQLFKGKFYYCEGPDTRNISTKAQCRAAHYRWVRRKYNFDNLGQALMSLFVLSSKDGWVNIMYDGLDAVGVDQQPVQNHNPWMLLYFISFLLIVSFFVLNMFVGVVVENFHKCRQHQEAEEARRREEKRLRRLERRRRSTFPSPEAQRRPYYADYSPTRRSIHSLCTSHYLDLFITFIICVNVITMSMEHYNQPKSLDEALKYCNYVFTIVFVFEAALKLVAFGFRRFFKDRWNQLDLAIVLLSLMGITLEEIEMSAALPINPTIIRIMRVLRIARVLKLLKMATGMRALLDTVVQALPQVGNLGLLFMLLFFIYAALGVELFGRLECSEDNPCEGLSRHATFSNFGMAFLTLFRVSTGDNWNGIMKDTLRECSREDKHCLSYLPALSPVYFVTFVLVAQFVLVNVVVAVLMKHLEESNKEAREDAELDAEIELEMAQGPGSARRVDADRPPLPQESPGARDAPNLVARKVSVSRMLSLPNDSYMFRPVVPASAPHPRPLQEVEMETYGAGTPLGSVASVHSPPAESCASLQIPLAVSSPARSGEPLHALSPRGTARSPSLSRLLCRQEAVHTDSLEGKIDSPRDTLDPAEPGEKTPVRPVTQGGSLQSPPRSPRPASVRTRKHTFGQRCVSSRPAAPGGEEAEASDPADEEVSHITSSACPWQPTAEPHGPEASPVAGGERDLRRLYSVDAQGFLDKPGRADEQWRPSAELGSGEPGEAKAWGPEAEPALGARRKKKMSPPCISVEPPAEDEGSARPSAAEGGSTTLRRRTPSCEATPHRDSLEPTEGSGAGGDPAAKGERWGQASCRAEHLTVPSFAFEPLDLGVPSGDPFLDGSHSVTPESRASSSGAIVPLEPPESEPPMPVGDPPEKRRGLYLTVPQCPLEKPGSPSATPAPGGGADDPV

SMILES: O=C1c2ccccc2C(Nc2cccc(C(F)(F)F)c2)N1Cc1ccco1 (configuration not stated)
- EC50 [1]: 3.9 µM (active)

SMILES: Cc1ccc(C)c(-c2nn(-c3cc(N4CCN(CCO)CC4)ccc3[N+](=O)[O-])c(=O)c3ccccc23)c1
- CC50 [2]: 31.4 µM (active)
- EC50 [3]: > 60 µM (not active)
- EC50 [4]: 2.23 µM (active)

SMILES: COc1ccc(S(=O)(=O)N2CCOC2CNC(=O)C(=O)NCCc2c[nH]c3ccccc23)cc1C (configuration not stated)
- EC50 [1]: 3.31 µM (active)

SMILES: CC(C)NC(C(=O)Nc1cc(Cl)cc(Cl)c1)c1ccccc1 (configuration not stated)
- EC50 [1]: 3.62 µM (active)

SMILES: Cc1ccc(Cl)cc1N1CCN(C(=O)C2CCC(=O)N(C3CCCCCC3)C2)CC1 (configuration not stated)
- CC50 [2]: > 40 µM (active)
- AC50 [5]: 3.14 µM (active)
- AC50 [6]: 54.8 µM (active)
- AC50 [7]: 3.41 µM (active)

SMILES: CN(C)CCCN(C(=O)c1ccc2c(c1)CCCC2)c1nc2c(F)cccc2s1
- EC50 [8]: 30 µM (active)
- EC50 [9]: 27 µM (active)
- EC50 [3]: > 60 µM (not active)
- EC50 [4]: 0.164 µM (active)
- AC50 [10]: 35.2 µM (active)

SMILES: COc1ccccc1OCC(=O)NCCNC(=O)COc1ccccc1OC
- IC50 [11]: > 66 µM (inactive)
- IC50 [12]: > 66 µM (inactive)

SMILES: Oc1ccc(-c2cn3ccccc3n2)cc1
- AC50 [13]: 0.097 µM (active)
- IC50 [14]: > 100 µM (active)

SMILES: CCN(CC)S(=O)(=O)c1ccc(Cc2ncc(C(F)(F)F)cc2Cl)s1
- EC50 [1]: 9.84 µM (active)

SMILES: CC1CCN(c2ccccc2NC(=S)NC(=O)c2ccc(-c3cccc([N+](=O)[O-])c3)o2)CC1
- AC50 [5]: 3.07 µM (active)
- AC50 [6]: > 70 µM (inactive)
- IC50 [11]: > 66 µM (inactive)
- IC50 [12]: > 66 µM (inactive)
- AC50 [7]: 3.38 µM (active)

SMILES: COc1ccc(-c2nc(CN3CCN(c4cc(C)nc(C)c4)CC3)c(C)o2)c2ccccc12
- EC50 [15]: > 120 µM (not active)
- EC50 [16]: > 160 µM (inactive)
- CC50 [2]: 11.5 µM (active)
- EC50 [17]: 3.22 µM (active)
- EC50 [18]: 20.9 µM (active)
- EC50 [19]: 10.7 µM (active)
- AC50 [10]: 7 µM (active)

SMILES: COc1ccc(NC(=O)CSc2ccccc2)cn1
- IC50 [11]: 41.7 µM (inactive)
- IC50 [12]: 33.4 µM (inactive)

SMILES: COc1ccccc1CNCC(=O)Nc1ccc(N2CCOCC2)cc1
- CC50 [20]: 30.7 µM (active)

SMILES: O=C(CCc1ccc(O)c(O)c1)NN=C(S)Nc1ccc(Br)cc1Cl
- IC50 [14]: > 100 µM (active)

SMILES: O=C(Nc1ccccc1-c1ccccc1)c1ccc(Br)o1
- EC50 [1]: 7.47 µM (active)

SMILES: CCCn1c(C)nc2c(NC3CCN(Cc4ccccc4)C3)nc(C)nc21 (configuration not stated)
- AC50 [21]: 15.8 µM (inconclusive)

SMILES: O=C(COc1cccc(C(F)(F)F)c1)N1CCN(c2ccc(O)cc2)CC1
- AC50 [22]: 7.3 µM (active)
- IC50 [14]: 9.68 µM (active)

SMILES: NC(=O)OCCSc1nnc(-c2cccc(C(N)=S)c2)o1
- IC50 [11]: > 66 µM (inactive)
- IC50 [12]: > 66 µM (inactive)

SMILES: Cc1cc(C)n(CCOC(=O)C2C(C=C(Cl)Cl)C2(C)C)n1 (configuration not stated)
- EC50 [1]: 4.86 µM (active)

SMILES: O=C(CN1CCN(C(=O)c2ccco2)CC1)Nc1ccc(Cl)c(C(F)(F)F)c1
- EC50 [1]: 3.47 µM (active)

SMILES: Cc1nn(-c2ccccc2)c2sc(C(=O)N3CCc4ccccc4C3)cc12
- EC50 [23]: 4.55 µM (active)
- CC50 [20]: > 40 µM (active)
- EC50 [24]: 14.6 µM (active)
- EC50 [25]: > 150 µM (not active)

SMILES: NCCCC[C@H]1CN=C(N)N1CCC12CC3CC(CC(C3)C1)C2
- AC50 [10]: 23.3 µM (active)

SMILES: C[C@@H]1CCCCO[C@@H](CN(C)Cc2ccc(Cl)c(Cl)c2)[C@@H](C)CN([C@H](C)CO)C(=O)c2cc(NC(=O)Nc3ccccc3)ccc2O1
- AC50 [26]: 3.82 µM (active)

SMILES: C[C@H]1CN([C@@H](C)CO)C(=O)Cc2cc(NC(=O)Cc3cn(C)c4ccccc34)ccc2O[C@@H]1CN(C)Cc1ccc(-c2ccccc2)cc1
- AC50 [26]: 1.72 µM (active)

SMILES: C[C@H](CO)N1C[C@H](C)[C@@H](CN(C)Cc2ccc(C(F)(F)F)cc2)Oc2c(NC(=O)NC3CCCCC3)cccc2C1=O
- AC50 [26]: 3.92 µM (active)

SMILES: C[C@H]1CN([C@@H](C)CO)C(=O)Cc2cc(NC(=O)Nc3ccc4c(c3)OCO4)ccc2O[C@@H]1CN(C)Cc1ccc(C(=O)Nc2ccccc2N)cc1
- AC50 [26]: 2.13 µM (active)

SMILES: COc1ccc(S(=O)(=O)N(C)C[C@H]2Oc3ccc(NS(=O)(=O)c4ccc(C)cc4)cc3CC(=O)N([C@H](C)CO)C[C@H]2C)cc1
- AC50 [26]: 3.72 µM (active)

SMILES: C[C@@H]1CN([C@H](C)CO)C(=O)Cc2cc(NC(=O)Nc3ccccc3)ccc2O[C@@H]1CN(C)Cc1ccc(Oc2ccccc2)cc1
- AC50 [26]: 3.76 µM (active)

SMILES: COc1ccc(NC(=O)Nc2ccc3c(c2)CC(=O)N([C@@H](C)CO)C[C@H](C)[C@H](CN(C)S(=O)(=O)c2cccs2)O3)cc1
- AC50 [27]: 13.2 µM (active)
- AC50 [28]: 12 µM (active)
- AC50 [29]: 27.1 µM (active)

SMILES: COc1cccc(S(=O)(=O)N(C)C[C@H]2Oc3cc(C#CCC(C)C)ccc3S(=O)(=O)N([C@@H](C)CO)C[C@H]2C)c1
- AC50 [27]: 10.6 µM (active)
- AC50 [28]: 25.1 µM (active)
- AC50 [29]: 34.2 µM (active)

SMILES: CC(C)(C)NCC(O)CON=C1c2ccccc2-c2ccccc21 (configuration not stated)
- AC50 [10]: 20.1 µM (active)

SMILES: Nc1ccc(Cl)cc1N
- AC50 [21]: 7.94 µM (inconclusive)

SMILES: CCCCS(=N)(=O)CCC(N)C(=O)O (configuration not stated) [BUTHIONINE SULFOXIMINE]
- AC50 [21]: 20 µM (inconclusive)

SMILES: CC(=O)OC1CCC23CC1(C)CCC2C(C)(C)CC3OC(C)=O (configuration not stated) [CLOVANEDIOL DIACETATE]
- AC50 [21]: 15.8 µM (inconclusive)

SMILES: CCCCC/C=C\C/C=C\CCCCCCCC(=O)O [LINOLEIC ACID]
- AC50 [21]: 31.6 µM (inconclusive)

SMILES: Clc1cccc(C(Cl)(Cl)Cl)n1 [NITRAPYRIN]
- AC50 [21]: 12.6 µM (inconclusive)
